Test results as given in patent US20250145609A1, “3-SUBSTITUTED PYRIDAZINE COMPOUNDS AS SMARCA2 AND/OR SMARCA4 DEGRADERS” (Aurigene Oncology Limited, priority 2022, published 2025).

Columns and labels:
Type in all cases: cell-based
[1] = system: VCaP cells; assay: Anti proliferative activity in VCaP cell line by CellTiter Glo assay; settings: Homo sapiens; for EC50: VCaP, 192 h, 8 days incubation, CellTiter Glo luminescence
Protocol: Example-P1: Determination of Anti Proliferative Activity of Compounds in Cell Lines VCaP by Cell Titer Glo©(Promega) Assay
VCaP (ATCC CRL-2876) cells were seeded in 96 well plate flat black clear bottom plates (Corning, Cat. No 3904) using complete DMEM Medium. Next day, compounds listed in the present invention were added to cells from 10 mM stocks made in DMSO (Sigma Cat no. D2650). Each concentration of compound was tested in triplicate with DMSO concentration at a final percentage not exceeding 0.3 in the cells. After the incubation of VCaP cells with compound for 8 days assay was terminated using 50 μl of CellTiter Glo© reagent (Promega, Cat. no G7572). CellTiter-Glo® Luminescent reagent determines the number of viable cells based on quantitation of ATP present which is an indicator of cell number and metabolic activity. Luminescence readings were taken in Victor-3 instrument. Percent inhibition of proliferation was calculated using formula, % inhibition=100−(luminescence value of test/luminescence value of DMSO control)*100. DMSO control (0%)=Cells in complete media with DMSO; blank=Media alone containing DMSO. EC50 was calculated using graph pad prism software.
Herein the group “A” refers to EC50 values lower than l0 nM, group “B” refers to EC50 values between l0 nM-100 nM (both inclusive) and group “C” refers to EC50 values greater than 100 nM.

[2] = target: T1, SMARCA2 (Homo sapiens, UniProt P51531); assay: SMARCA2 degradation in VCaP cells by Western blot; settings: at 100 nM, 16 hours
T1 construct: endogenous in cells; host or cells: VCaP (ATCC CRL-2876)
T1 sequence (P51531 whole entry): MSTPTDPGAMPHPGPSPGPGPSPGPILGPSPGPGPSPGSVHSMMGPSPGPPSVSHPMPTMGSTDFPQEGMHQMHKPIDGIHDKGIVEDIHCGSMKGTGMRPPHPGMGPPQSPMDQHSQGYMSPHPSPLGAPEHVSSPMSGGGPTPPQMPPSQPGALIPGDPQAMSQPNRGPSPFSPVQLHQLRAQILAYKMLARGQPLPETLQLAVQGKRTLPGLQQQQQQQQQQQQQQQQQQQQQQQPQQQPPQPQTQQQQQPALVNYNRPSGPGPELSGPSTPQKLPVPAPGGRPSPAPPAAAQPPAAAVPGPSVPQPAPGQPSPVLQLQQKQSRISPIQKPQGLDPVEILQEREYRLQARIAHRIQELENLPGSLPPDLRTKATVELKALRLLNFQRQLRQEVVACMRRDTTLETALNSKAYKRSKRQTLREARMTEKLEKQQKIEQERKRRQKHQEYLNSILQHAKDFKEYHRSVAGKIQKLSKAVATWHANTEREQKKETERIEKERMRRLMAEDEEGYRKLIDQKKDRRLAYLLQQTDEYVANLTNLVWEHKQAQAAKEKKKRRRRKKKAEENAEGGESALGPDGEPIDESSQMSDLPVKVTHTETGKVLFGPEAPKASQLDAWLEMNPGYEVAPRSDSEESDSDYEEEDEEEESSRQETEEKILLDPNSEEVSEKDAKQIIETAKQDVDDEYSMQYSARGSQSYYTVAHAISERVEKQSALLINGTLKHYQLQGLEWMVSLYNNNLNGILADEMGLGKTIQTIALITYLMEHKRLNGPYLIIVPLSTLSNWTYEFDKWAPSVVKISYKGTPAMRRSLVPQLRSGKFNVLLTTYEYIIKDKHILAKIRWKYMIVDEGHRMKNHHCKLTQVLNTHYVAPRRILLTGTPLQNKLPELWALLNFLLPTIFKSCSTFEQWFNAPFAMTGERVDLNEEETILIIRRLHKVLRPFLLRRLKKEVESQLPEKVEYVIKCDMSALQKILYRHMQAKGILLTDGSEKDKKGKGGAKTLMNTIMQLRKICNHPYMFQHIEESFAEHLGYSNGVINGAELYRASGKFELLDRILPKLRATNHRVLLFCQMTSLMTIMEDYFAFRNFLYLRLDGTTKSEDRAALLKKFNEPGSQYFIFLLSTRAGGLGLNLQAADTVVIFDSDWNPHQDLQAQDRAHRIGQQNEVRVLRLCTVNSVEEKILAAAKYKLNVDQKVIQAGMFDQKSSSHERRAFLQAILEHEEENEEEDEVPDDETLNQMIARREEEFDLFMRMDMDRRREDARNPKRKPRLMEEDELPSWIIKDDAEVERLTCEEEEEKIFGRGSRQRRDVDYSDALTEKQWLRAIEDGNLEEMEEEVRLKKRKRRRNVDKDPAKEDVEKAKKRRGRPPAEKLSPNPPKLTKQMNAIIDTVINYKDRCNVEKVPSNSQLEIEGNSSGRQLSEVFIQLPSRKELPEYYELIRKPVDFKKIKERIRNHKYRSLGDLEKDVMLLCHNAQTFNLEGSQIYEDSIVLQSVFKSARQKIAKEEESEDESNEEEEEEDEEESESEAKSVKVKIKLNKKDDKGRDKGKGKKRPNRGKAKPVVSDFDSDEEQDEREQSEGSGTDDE
Protocol: (§1) Example-P2: Determination of SMARCA2 and SMARCA4 Degradation in VCaP Cells by Western Blot
(§2) VCaP (ATCC CRL-2876) was plated in 6 well plates using complete Dulbecco's Modified Eagle's Medium. On the third day, compounds of present invention were added to cells from 10 mM stocks made in DMSO (Sigma Cat no. D2650). Each compound was tested at 100 nM concentration with DMSO not exceeding final percentage of 0.3 in the cells. Cells were incubated with the compound for 16 hours followed by harvesting with 1×RIPA lysis buffer (Thermo Fischer, catalogue number #89900) containing protease inhibitor cocktail (Sigma catalogue number #P-8340). Equal amount of protein was loaded on SDS PAGE gel for electrophoresis. Western blot was carried out for detection of either SMARCA2 (Cell signalling technologies, catalogue number #11966) or SMARCA4 antibody (Cell signalling technologies, catalogue number #52251). Beta-Tubulin antibody (Cell signalling technologies, catalogue number #86298) was used as loading control. Percentage of SMARCA2 or SMARCA4 degradation was calculated by using formula: […]

[3] = target: T2, SMARCA4 (Homo sapiens, UniProt P51532); assay: SMARCA4 degradation in VCaP cells by Western blot; settings: at 100 nM; for Percent SMARCA4 degradation at 0.1 µM: VCaP, 16 h
T2 construct: endogenous in cells; host or cells: VCaP (ATCC CRL-2876)
T2 sequence (P51532 whole entry): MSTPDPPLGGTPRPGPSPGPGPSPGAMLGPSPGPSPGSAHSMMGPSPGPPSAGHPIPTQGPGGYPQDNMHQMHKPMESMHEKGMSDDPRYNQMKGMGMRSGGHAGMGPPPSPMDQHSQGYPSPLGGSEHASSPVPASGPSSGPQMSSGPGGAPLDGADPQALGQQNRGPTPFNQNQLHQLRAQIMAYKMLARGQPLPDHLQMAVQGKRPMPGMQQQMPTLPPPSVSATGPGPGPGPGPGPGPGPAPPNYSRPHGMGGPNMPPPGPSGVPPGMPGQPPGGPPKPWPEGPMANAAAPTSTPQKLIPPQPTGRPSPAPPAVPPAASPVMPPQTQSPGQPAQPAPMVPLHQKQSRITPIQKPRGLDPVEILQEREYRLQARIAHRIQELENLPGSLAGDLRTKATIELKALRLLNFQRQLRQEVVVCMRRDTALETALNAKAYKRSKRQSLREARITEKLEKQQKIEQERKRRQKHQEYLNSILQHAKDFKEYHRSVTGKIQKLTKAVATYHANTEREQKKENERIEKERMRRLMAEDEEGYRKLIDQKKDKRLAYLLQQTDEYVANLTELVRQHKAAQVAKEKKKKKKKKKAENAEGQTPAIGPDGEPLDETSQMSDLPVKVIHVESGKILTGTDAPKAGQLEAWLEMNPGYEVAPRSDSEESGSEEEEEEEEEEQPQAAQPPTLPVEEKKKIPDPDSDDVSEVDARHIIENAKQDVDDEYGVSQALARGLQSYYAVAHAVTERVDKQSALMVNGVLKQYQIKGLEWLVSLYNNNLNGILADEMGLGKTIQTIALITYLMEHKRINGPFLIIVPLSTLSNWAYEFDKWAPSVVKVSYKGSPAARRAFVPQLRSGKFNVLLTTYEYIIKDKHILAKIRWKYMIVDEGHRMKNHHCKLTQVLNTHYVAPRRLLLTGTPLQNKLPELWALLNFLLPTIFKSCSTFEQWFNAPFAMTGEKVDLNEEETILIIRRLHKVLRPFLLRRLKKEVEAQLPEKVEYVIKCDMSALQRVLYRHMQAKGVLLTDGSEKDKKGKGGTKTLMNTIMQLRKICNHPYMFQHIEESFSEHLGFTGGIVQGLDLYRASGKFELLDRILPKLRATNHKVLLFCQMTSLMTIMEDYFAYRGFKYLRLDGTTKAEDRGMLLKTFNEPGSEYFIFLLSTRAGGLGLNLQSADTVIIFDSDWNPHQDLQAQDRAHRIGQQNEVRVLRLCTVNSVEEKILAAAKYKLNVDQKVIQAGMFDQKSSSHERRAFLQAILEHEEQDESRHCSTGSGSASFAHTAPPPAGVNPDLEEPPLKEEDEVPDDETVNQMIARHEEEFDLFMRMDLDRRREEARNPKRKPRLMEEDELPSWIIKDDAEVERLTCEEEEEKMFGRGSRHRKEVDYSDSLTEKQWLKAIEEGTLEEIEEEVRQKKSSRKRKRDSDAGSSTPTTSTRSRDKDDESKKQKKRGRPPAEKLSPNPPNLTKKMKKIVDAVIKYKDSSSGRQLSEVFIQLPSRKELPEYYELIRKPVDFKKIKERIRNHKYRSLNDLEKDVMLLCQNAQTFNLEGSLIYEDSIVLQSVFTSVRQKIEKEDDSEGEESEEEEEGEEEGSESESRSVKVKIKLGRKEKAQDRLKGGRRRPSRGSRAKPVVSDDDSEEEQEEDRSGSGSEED
Protocol: as §1, §2

EC50 [1] [nM] | Percent degradation SMARCA2 [2] [%] | Percent SMARCA4 degradation at 0.1 µM [3] [%] | Percent degradation SMARCA4 ([3]; 16 hours) [%] | Structure (SMILES) | inhibition at 1 µM ([1]; at 1 μM, read-out: % inhibition of proliferation) [%]
< 10 | 99 | 86 |  | Cc1ncsc1-c1ccc([C@H](C)NC(=O)[C@@H]2C[C@@H](O)CN2C(=O)[C@@H](NC(=O)CN2CCC(c3ccc(-c4cc(-c5ccccc5O)nnc4N)cc3)CC2C)C(C)(C)C)cc1 (single isomer, unassigned) [Compound 36] | 
< 10 | 98 | 89 |  | Cc1ncsc1-c1ccc([C@H](C)NC(=O)[C@@H]2C[C@@H](O)CN2C(=O)[C@@H](NC(=O)CN2CCC(Oc3ccc(-c4cc(-c5ccccc5O)nnc4N)cc3)CC2)C(C)(C)C)cc1 [Compound 53, (2S,4R)-1-((S)-2-(2-(4-(4-(3-amino-6-(2-hydroxyphenyl)pyridazin-4-yl)phenoxy)piperidin-1-yl)acetamido)-3,3-dimethylbutanoyl)-4-hydroxy-N-((S)-1-(4-(4-methylthiazol-5-yl)phenyl)ethyl)pyrrolidine-2-carboxamide] | 
10 to 100 | 100 | 91 |  | Cc1ncsc1-c1ccc([C@H](C)NC(=O)[C@@H]2C[C@@H](O)CN2C(=O)[C@@H](NC(=O)CC2CCN(c3ccc(-c4cc(-c5ccccc5O)nnc4N)cc3)CC2)C(C)(C)C)cc1 [Compound 38, (2S,4R)-1-((S)-2-(2-(1-(4-(3-amino-6-(2-hydroxyphenyl)pyridazin-4-yl)phenyl)piperidin-4-yl)acetamido)-3,3-dimethylbutanoyl)-4-hydroxy-N-((S)-1-(4-(4-methylthiazol-5-yl)phenyl)ethyl)pyrrolidine-2-carboxamide] | 
< 10 | 95 | 95 |  | Cc1ncsc1-c1ccc([C@H](C)NC(=O)[C@@H]2C[C@@H](O)CN2C(=O)[C@@H](NC(=O)CN2CCC(c3ccc(-c4cc(-c5ccccc5O)nnc4N)cc3)CC2)C(C)(C)C)cc1 [Compound 29, (2S,4R)-1-((S)-2-(2-(4-(4-(3-amino-6-(2-hydroxyphenyl)pyridazin-4-yl)phenyl)piperidin-1-yl)acetamido)-3,3-dimethylbutanoyl)-4-hydroxy-N—((S)-1-(4-(4-methylthiazol-5-yl)phenyl)ethyl)pyrrolidine-2-carboxamide] | 
< 10 | 97 | 45 |  | Cc1ncsc1-c1ccc([C@H](C)NC(=O)[C@@H]2C[C@@H](O)CN2C(=O)[C@@H](NC(=O)C2CCC(c3ccc(-c4cc(-c5ccccc5O)nnc4N)cc3)CC2)C(C)(C)C)cc1 (mixture of isomers) [Compound 40, (2S,4R)-1-((S)-2-(4-(4-(3-amino-6-(2-hydroxyphenyl)pyridazin-4-yl)phenyl)cyclohexane-1-carboxamido)-3,3-dimethylbutanoyl)-4-hydroxy-N-((S)-1-(4-(4-methylthiazol-5-yl)phenyl)ethyl)pyrrolidine-2-carboxamide] | 
 | 92 |  | 52 | Cc1ncsc1-c1ccc([C@H](C)NC(=O)[C@@H]2C[C@@H](O)CN2C(=O)[C@@H](NC(=O)C2CCC(c3ccc(-c4cc(-c5ccccc5O)nnc4N)cc3)CC2)C(C)(C)C)cc1 (single isomer, unassigned) [Compound 41] | 

Continued, compound first:

Structure (SMILES) | EC50 [1] [nM] | Percent degradation SMARCA2 [2] [%] | Percent SMARCA4 degradation at 0.1 µM [3] [%] | Percent degradation SMARCA4 ([3]; 16 hours) [%] | inhibition at 1 µM ([1]; at 1 μM, read-out: % inhibition of proliferation) [%]
Cc1ncsc1-c1ccc([C@H](C)NC(=O)[C@@H]2C[C@@H](O)CN2C(=O)C(C(C)C)n2cc(-c3ccc(-c4cc(-c5ccccc5O)nnc4N)cc3)cn2)cc1 (stereo partly drawn) [Compound 11, (2S,4R)-1-(2-(4-(4-(3-amino-6-(2-hydroxyphenyl)pyridazin-4-yl)phenyl)-1H-pyrazol-1-yl)-3-methylbutanoyl)-4-hydroxy-N—((S)-1-(4-(4-methylthiazol-5-yl)phenyl)ethyl)pyrrolidine-2-carboxamide] | 10 to 100 | 98 | 51 |  | 
Cc1ncsc1-c1ccc(CNC(=O)[C@@H]2C[C@@H](O)CN2C(=O)[C@@H](NC(=O)CN2CCC(c3ccc(-c4cc(-c5ccccc5O)nnc4N)cc3)CC2)C(C)(C)C)cc1 [Compound 30, (2S,4R)-1-((S)-2-(2-(4-(4-(3-amino-6-(2-hydroxyphenyl)pyridazin-4-yl)phenyl)piperidin-1-yl)acetamido)-3,3-dimethylbutanoyl)-4-hydroxy-N-(4-(4-methylthiazol-5-yl)benzyl)pyrrolidine-2-carboxamide] | 10 to 100 | 92 | 63 |  | 
Cc1ncsc1-c1ccc([C@H](C)NC(=O)[C@@H]2C[C@@H](O)CN2C(=O)[C@@H](NC(=O)COc2ccc(-c3cc(-c4cc(F)ccc4O)nnc3N)cc2)C(C)(C)C)cc1 [Compound 1, (2S,4R)-1-((S)-2-(2-(4-(3-amino-6-(5-fluoro-2-hydroxyphenyl)pyridazin-4-yl)phenoxy)acetamido)-3,3-dimethylbutanoyl)-4-hydroxy-N—((S)-1-(4-(4-methylthiazol-5-yl)phenyl)ethyl)pyrrolidine-2-carboxamide] | 10 to 100 |  |  |  | 
Cc1ncsc1-c1ccc([C@H](C)NC(=O)[C@@H]2C[C@@H](O)CN2C(=O)[C@@H](NC(=O)CN2CCC(O)(c3ccc(-c4cc(-c5ccccc5O)nnc4N)cc3)CC2)C(C)(C)C)cc1 [Compound 48, (2S,4R)-1-((S)-2-(2-(4-(4-(3-amino-6-(2-hydroxyphenyl)pyridazin-4-yl)phenyl)-4-hydroxypiperidin-1-yl)acetamido)-3,3-dimethylbutanoyl)-4-hydroxy-N-((S)-1-(4-(4-methylthiazol-5-yl)phenyl)ethyl)pyrrolidine-2-carboxamide] | 10 to 100 | 97 | 20 |  | 
Cc1ncsc1-c1ccc([C@H](C)NC(=O)[C@@H]2C[C@@H](O)CN2C(=O)C(c2cc(N3CCC(N4CCN(c5ccc(-c6cc(-c7ccccc7O)nnc6N)cc5)CC4)CC3)no2)C(C)C)cc1 (stereo partly drawn) [Compound 59, (2S,4R)-1-(2-(3-(4-(4-(4-(3-amino-6-(2-hydroxyphenyl)pyridazin-4-yl)phenyl)piperazin-1-yl)piperidin-1-yl)isoxazol-5-yl)-3-methylbutanoyl)-4-hydroxy-N—((S)-1-(4-(4-methylthiazol-5-yl)phenyl)ethyl)pyrrolidine-2-carboxamide] | < 10 |  |  |  | 
Cc1ncsc1-c1ccc([C@H](C)NC(=O)[C@@H]2C[C@@H](O)CN2C(=O)C(N2CCC(N3CCN(c4ccc(-c5cc(-c6ccccc6O)nnc5N)cc4)CC3)CC2)C(C)(C)C)cc1 (stereo partly drawn) [Compound 60, (2S,4R)-1-(2-(4-(4-(4-(3-amino-6-(2-hydroxyphenyl)pyridazin-4-yl)phenyl)piperazin-1-yl)piperidin-1-yl)-3,3-dimethylbutanoyl)-4-hydroxy-N—((S)-1-(4-(4-methylthiazol-5-yl)phenyl)ethyl)pyrrolidine-2-carboxamide] | > 100 |  |  |  | 20
Cc1ncsc1-c1ccc([C@H](C)NC(=O)[C@@H]2C[C@@H](O)CN2C(=O)[C@@H](NC(=O)CCC#Cc2ccc(-c3cc(-c4ccccc4O)nnc3N)cc2)C(C)(C)C)cc1 [Compound 20, (2S,4R)-1-((S)-2-(5-(4-(3-amino-6-(2-hydroxyphenyl)pyridazin-4-yl)phenyl)pent-4-ynamido)-3,3-dimethylbutanoyl)-4-hydroxy-N-((S)-1-(4-(4-methylthiazol-5-yl)phenyl)ethyl)pyrrolidine-2-carboxamide] |  | 98 | 97 |  | 
Cc1ncsc1-c1ccc([C@H](C)NC(=O)[C@@H]2C[C@@H](O)CN2C(=O)C(c2cc(-c3ccc(-c4cc(-c5ccccc5F)nnc4N)cc3)no2)C(C)C)cc1 (stereo partly drawn) [Compound 9, (2S,4R)-1-(2-(3-(4-(3-amino-6-(2-fluorophenyl)pyridazin-4-yl)phenyl)isoxazol-5-yl)-3-methylbutanoyl)-4-hydroxy-N-((S)-1-(4-(4-methylthiazol-5-yl)phenyl)ethyl)pyrrolidine-2-carboxamide] |  | 30 | 62 |  | 
Cc1ncsc1-c1ccc([C@H](C)NC(=O)[C@@H]2C[C@@H](O)CN2C(=O)C(c2cc(-c3ccc(-c4cc(-c5ccccc5C(F)F)nnc4N)cc3)no2)C(C)C)cc1 (stereo partly drawn) [Compound 8, (2S,4R)-1-(2-(3-(4-(3-amino-6-(2-(difluoromethyl)phenyl)pyridazin-4-yl)phenyl)isoxazol-5-yl)-3-methylbutanoyl)-4-hydroxy-N-((S)-1-(4-(4-methylthiazol-5-yl)phenyl)ethyl)pyrrolidine-2-carboxamide] |  | 0 | 18 |  | 
